Source: patent US10800792B2, “Inhibitors of Bruton's tyrosine kinase and method of their use” (JANSSEN PHARMACEUTICA NV, priority 2015, dated 2020)

Target: unphosphorylated-BTK kinase domain (UP-BTK), GST-tagged human BTK (389-659aa) (Homo sapiens (Human), UniProt Q06187)
Assay: BTK kinase Lanthascreen binding assay
Conditions: pIC50 = negative log of the IC50 in molar; 60 minutes incubation, 50 nM Tracer 236
How it was run: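 Measures how well compounds compete with a fluorescence-labelled tracer for binding to BTK in its unphosphorylated state. IC50 values were fitted and expressed as pIC50 (negative logarithm of the molar IC50).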

Chain of unphosphorylated-BTK kinase domain (UP-BTK), GST-tagged human BTK (389-659aa) (Q06187 389-659): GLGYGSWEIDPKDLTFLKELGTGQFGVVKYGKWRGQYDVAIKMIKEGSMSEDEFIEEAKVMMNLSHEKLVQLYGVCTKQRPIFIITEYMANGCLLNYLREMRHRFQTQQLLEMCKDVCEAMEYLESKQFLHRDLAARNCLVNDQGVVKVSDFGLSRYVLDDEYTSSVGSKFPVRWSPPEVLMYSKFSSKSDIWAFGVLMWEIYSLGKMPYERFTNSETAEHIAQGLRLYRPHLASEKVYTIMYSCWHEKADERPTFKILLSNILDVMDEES

| SMILES | BTK_I_binding pIC50 |
| --- | --- |
| Cc1c(N2C(=O)Nc3c(C(=O)N[C@@H]4CCCN(C(=O)CCO)C4)sc4nccc2c34)ccc(Oc2ccccc2)c1F [Example 128, (R)-5-(3-Fluoro-2-methyl-4-phenoxyphenyl)-N-(1-(3-hydroxypropanoyl)piperidin-3-yl)-4-oxo-4,5-dihydro-3H-1-thia-3,5,8-triazaacenaphthylene-2-carboxamide] | 7.2 |
| Cc1cc(Oc2ccccc2)ccc1N1C(=O)Nc2c(C(=O)NC3COCCN(C)C3)sc3nccc1c23 (stereo not drawn) [Example 129, N-(4-Methyl-1,4-oxazepan-6-yl)-5-(2-methyl-4-phenoxyphenyl)-4-oxo-4,5-dihydro-3H-1-thia-3,5,8-triazaacenaphthylene-2-carboxamide] | 6.9 |
| Cc1cc(Oc2ccccc2)ccc1N1C(=O)Nc2c(C(=O)N[C@H]3CN(C)C[C@H]3F)sc3nccc1c23 [Example 132, N-((3S,4R)-4-Fluoro-1-methylpyrrolidin-3-yl)-5-(2-methyl-4-phenoxyphenyl)-4-oxo-4,5-dihydro-3H-1-thia-3,5,8-triazaacenaphthylene-2-carboxamide] | 7.2 |
| CN1CCC[C@@H](NC(=O)c2sc3nccc4c3c2NC(=O)N4c2ccc(Oc3ccccc3)cc2Cl)C1 [Example 133, (R)-5-(2-Chloro-4-phenoxyphenyl)-N-(1-methylpiperidin-3-yl)-4-oxo-4,5-dihydro-3H-1-thia-3,5,8-triazaacenaphthylene-2-carboxamide] | 7.0 |
| CN1CCC[C@@H](NC(=O)c2sc3nccc4c3c2NC(=O)N4c2ccc(Oc3ccccc3)cc2F)C1 [Example 135, (R)-5-(2-Fluoro-4-phenoxyphenyl)-N-(1-methylpiperidin-3-yl)-4-oxo-4,5-dihydro-3H-1-thia-3,5,8-triazaacenaphthylene-2-carboxamide] | 7.2 |
| C=CC(=O)N1CC[C@@H](N(C)C(=O)c2sc3nccc4c3c2NC(=O)N4c2ccc(Oc3ccccc3)cc2C)C1 [Example 137, (R)—N-(1-Acryloylpyrrolidin-3-yl)-N-methyl-5-(2-methyl-4-phenoxyphenyl)-4-oxo-4,5-dihydro-3H-1-thia-3,5,8-triazaacenaphthylene-2-carboxamide] | 6.6 |
| Cc1cc(Oc2ccccc2)ccc1N1C(=O)Nc2c(C(=O)N[C@H]3CNC[C@H](F)C3)sc3nccc1c23 [Example 138, N-((3R,5R)-5-fluoropiperidin-3-yl)-5-(2-methyl-4-phenoxyphenyl)-4-oxo-4,5-dihydro-3H-1-thia-3,5,8-triazaacenaphthylene-2-carboxamide] | 7.0 |
| COCCC(=O)N1C[C@H](NC(=O)c2sc3nccc4c3c2NC(=O)N4c2ccc(Oc3ccccc3)cc2C)[C@@H](O)C1 [Example 139, N-((3S,4S)-4-Hydroxy-1-(3-methoxypropanoyl)pyrrolidin-3-yl)-5-(2-methyl-4-phenoxyphenyl)-4-oxo-4,5-dihydro-3H-1-thia-3,5,8-triazaacenaphthylene-2-carboxamide] | 7.2 |
| Cc1ccccc1Oc1ccc(N2C(=O)Nc3c(C(=O)N[C@@H]4CCCN(C)C4)sc4nccc2c34)c(C)c1 [Example 148, (R)-5-(2-Methyl-4-(o-tolyloxy)phenyl)-N-(1-methylpiperidin-3-yl)-4-oxo-4,5-dihydro-3H-1-thia-3,5,8-triazaacenaphthylene-2-carboxamide] | 6.9 |
| Cc1cc(Oc2ccccc2)ccc1N1C(=O)Nc2c(C(=O)N[C@@H]3CCCN(C(=O)/C(C#N)=C/C(C)(C)N4CCCCC4)C3)sc3nccc1c23 [Example 150, (R,E)-N-(1-(2-Cyano-4-methyl-4-(piperidin-1-yl)pent-2-enoyl)piperidin-3-yl)-5-(2-methyl-4-phenoxyphenyl)-4-oxo-4,5-dihydro-3H-1-thia-3,5,8-triazaacenaphthylene-2-carboxamide] | 6.9 |
| Cc1cc(Oc2ccccc2)ccc1N1C(=O)Nc2c(C(=O)N[C@@H]3CCCN(C(=O)/C(C#N)=C/C(C)(C)NC4CC4)C3)sc3nccc1c23 [Example 152, (R,E)-N-(1-(2-Cyano-4-(cyclopropylamino)-4-methylpent-2-enoyl)piperidin-3-yl)-5-(2-methyl-4-phenoxyphenyl)-4-oxo-4,5-dihydro-3H-1-thia-3,5,8-triazaacenaphthylene-2-carboxamide] | 7.3 |

Continued, values first:

| BTK_I_binding pIC50 | SMILES |
| --- | --- |
| 7.1 | Cc1cc(Oc2ccccc2)ccc1N1C(=O)Nc2c(C(=O)N[C@@H]3CCCN(C(=O)CCN(C)C)C3)sc3nccc1c23 [Example 130, (R)—N-(1-(3-(Dimethylamino)propanoyl)piperidin-3-yl)-5-(2-methyl-4-phenoxyphenyl)-4-oxo-4,5-dihydro-3H-1-thia-3,5,8-triazaacenaphthylene-2-carboxamide] |
| 7.5 | Cc1cc(Oc2ccccc2)ccc1N1C(=O)Nc2c(C(=O)N[C@@H]3CCCN(C(=O)[C@H]4CCNC4)C3)sc3nccc1c23 [Example 131, 5-(2-Methyl-4-phenoxyphenyl)-4-oxo-N—((R)-1-((S)-pyrrolidine-3-carbonyl)piperidin-3-yl)-4,5-dihydro-3H-1-thia-3,5,8-triazaacenaphthylene-2-carboxamide] |
| 7.1 | Cc1cc(Oc2ccccc2)ccc1N1C(=O)Nc2c(C(=O)N[C@@H]3CCCN(C(=O)/C(C#N)=C\C(C)(C)N(C)C)C3)sc3nccc1c23 [Example 134, (R,Z)—N-(1-(2-Cyano-4-(dimethylamino)-4-methylpent-2-enoyl)piperidin-3-yl)-5-(2-methyl-4-phenoxyphenyl)-4-oxo-4,5-dihydro-3H-1-thia-3,5,8-triazaacenaphthylene-2-carboxamide] |
| 7.1 | Cc1cc(Oc2ccccc2)ccc1N1C(=O)Nc2c(C(=O)N[C@@H]3CCCN(C(=O)C4COC4)C3)sc3nccc1c23 [Example 136, (R)-5-(2-Methyl-4-phenoxyphenyl)-N-(1-(oxetane-3-carbonyl)piperidin-3-yl)-4-oxo-4,5-dihydro-3H-1-thia-3,5,8-triazaacenaphthylene-2-carboxamide] |
| 6.7 | CC(C)=C(C#N)C(=O)N1CCC[C@@H](NC(=O)c2sc3nccc4c3c2NC(=O)N4c2ccc(Oc3ccccc3)cc2C)C1 [Example 140, (R)—N-(1-(2-Cyano-3-methylbut-2-enoyl)piperidin-3-yl)-5-(2-methyl-4-phenoxyphenyl)-4-oxo-4,5-dihydro-3H-1-thia-3,5,8-triazaacenaphthylene-2-carboxamide] |
| 6.8 | CCN1CC[C@@H](NC(=O)c2sc3nccc4c3c2NC(=O)N4c2ccc(Oc3ccccc3)cc2C)C1 [Example 141, (R)—N-(1-Ethylpyrrolidin-3-yl)-5-(2-methyl-4-phenoxyphenyl)-4-oxo-4,5-dihydro-3H-1-thia-3,5,8-triazaacenaphthylene-2-carboxamide] |
| 7.2 | COC[C@H](OC)C(=O)N1CCC[C@@H](NC(=O)c2sc3nccc4c3c2NC(=O)N4c2ccc(Oc3ccccc3)cc2C)C1 [Example 142, N—((R)-1-((S)-2,3-Dimethoxypropanoyl)piperidin-3-yl)-5-(2-methyl-4-phenoxyphenyl)-4-oxo-4,5-dihydro-3H-1-thia-3,5,8-triazaacenaphthylene-2-carboxamide] |
| 7.3 | COC[C@@H](O)C(=O)N1CCC[C@@H](NC(=O)c2sc3nccc4c3c2NC(=O)N4c2ccc(Oc3ccccc3)cc2C)C1 [Example 143, N—((R)-1-((R)-2-Hydroxy-3-methoxypropanol)piperidin-3-yl)-5-(2-methyl-4-phenoxyphenyl)-4-oxo-4,5-dihydro-3H-1-thia-3,5,8-triazaacenaphthylene-2-carboxamide] |
| 7.5 | C=C(C(=O)N1CCC[C@@H](NC(=O)c2sc3nccc4c3c2NC(=O)N4c2ccc(Oc3ccccc3)cc2C)C1)C(F)(F)F [Example 144, (R)-5-(2-Methyl-4-phenoxyphenyl)-4-oxo-N-(1-(2-(trifluoromethyl)acryloyl)piperidin-3-yl)-4,5-dihydro-3H-1-thia-3,5,8-triazaacenaphthylene-2-carboxamide] |
| 7.0 | Cc1cc(Oc2ccccc2)ccc1N1C(=O)Nc2c(C(=O)N[C@@H]3CCCN(C(=O)[C@@H]4CCN(C)C4)C3)sc3nccc1c23 [Example 145, 5-(2-Methyl-4-phenoxyphenyl)-N—((R)-1-((R)-1-methylpyrrolidine-3-carbonyl)piperidin-3-yl)-4-oxo-4,5-dihydro-3H-1-thia-3,5,8-triazaacenaphthylene-2-carboxamide] |
| 7.4 | Cc1cc(Oc2ccccc2)ccc1N1C(=O)Nc2c(C(=O)N[C@@H]3CCCN(C(=O)CCS(C)(=O)=O)C3)sc3nccc1c23 [Example 146, (R)-5-(2-Methyl-4-phenoxyphenyl)-N-(1-(3-(methylsulfonyl)propanoyl)piperidin-3-yl)-4-oxo-4,5-dihydro-3H-1-thia-3,5,8-triazaacenaphthylene-2-carboxamide] |
| 6.8 | Cc1cc(Oc2ccccc2)ccc1N1C(=O)Nc2c(C(=O)N[C@@H]3CCN(C4CC4)C3)sc3nccc1c23 [Example 149, (R)—N-(1-Cyclopropylpyrrolidin-3-yl)-5-(2-methyl-4-phenoxyphenyl)-4-oxo-4,5-dihydro-3H-1-thia-3,5,8-triazaacenaphthylene-2-carboxamide] |
| 7.2 | Cc1cc(Oc2ccccc2)ccc1N1C(=O)Nc2c(C(=O)N[C@@H]3CCCN(C(=O)CN)C3)sc3nccc1c23 [Example 151, (R)—N-(1-(2-Aminoacetyl)piperidin-3-yl)-5-(2-methyl-4-phenoxyphenyl)-4-oxo-4,5-dihydro-3H-1-thia-3,5,8-triazaacenaphthylene-2-carboxamide] |
